Converted amounts (≈) assume the structure as drawn. A value given as a limit tells only on which side of the number the result lay.

Series [1] concerns Plasmodium falciparum. Kind of series: Antimalarial activity against chloroquine, mefloquine, pyrimethamine and atovaquone-resistant Plasmodium falciparum TM90-C2B infected in human A+ erythrocytes after 72 hrs by SYBR Green I assay. It counts as functional, organism-based.
Series [2] deals with Plasmodium falciparum. In words: Antimalarial activity against chloroquine and pyrimethamine-resistant Plasmodium falciparum W2 infected in human A+ erythrocytes after 72 hrs by SYBR Green I assay. It counts as functional, organism-based. The conditions noted are these: W2, 72 h.
The test system of a further series is J774. In words: Cytotoxicity against mouse J774 cells. Format: cell-based.
A short description of series [3]: Lipophilicity, log D of the compound at pH 7.4. Conditions: buffer.
Series [4] is described as follows: Passive transcellular permeability of the compound at pH 7.4 by PAMPA. Format: ADME. The conditions noted are these: read-out: permeability.
A short description of series [5]: Passive transcellular permeability of the compound at pH 4 by PAMPA. Format: ADME. Conditions: for Papp: read-out: permeability.
A short description of series [6]: Half life in mouse liver microsomes. Format: ADME, Microsome.
Series [7] is described as follows: Half life in human liver microsomes. It counts as ADME, Microsome.
A further series in a line: in vitro. Conditions: mouse, J774 cells.
Another series in a line: physchem. The conditions noted are these: aqueous, pH 7.4.

Description for in vitro: Cytotoxicity index, ratio of EC50 for mice (Mus musculus) J774 cells to EC50 for chloroquine, mefloquine, pyrimethamine and atovaquone-resistant Plasmodium falciparum TM90-C2B
Description for physchem: Aqueous solubility of the compound at pH 7.4 by HPLC analysis

`COc1cc2[nH]c(C)c(/C=C/C(=O)OC(C)(C)C)c(=O)c2cc1Cl`: the values for the concentration for a half-maximal effect (EC50) in the series with Plasmodium falciparum [1], in the series on Plasmodium falciparum [2] and with J774 were 53.6 nM, 61.7 nM and more than 28600 nM, respectively. In addition, in [3], the logD worked out at 1.81. Further, the Papp turned out to be 261 ×10⁻⁶ cm/s in [4] and 249 ×10⁻⁶ cm/s in [5]. Moreover, the half-life was determined as 43.9 min in series [6] and 60.3 min in [7]. Besides, the selectivity ratio in the series “in vitro” was more than 533. In addition, the concentration in solution in the series “physchem” (solubility) was 5 µM (≈ 1.75 µg/mL).
As to `CCCCCCCc1c(C)nc2cc(OC)ccc2c1O`, the half-maximal effective concentration (EC50) with Plasmodium falciparum [1] was 46.6 nM; in the series with Plasmodium falciparum [2], 8.59 nM; in the series on J774, more than 34800 nM. This compound had a log distribution coefficient (logD) in series [3] of 3.69. For the same compound, the Papp in series [4] was found to be 679 ×10⁻⁶ cm/s. In series [5], this compound registered a permeability of 1019.9 ×10⁻⁶ cm/s. Moreover, the half-life worked out at 7.9 min in [6] and 10.2 min in series [7]. Moreover, the selectivity ratio in “in vitro” is more than 747. Moreover, the concentration in solution in the series “physchem” (solubility) was 2 µM (≈ 0.575 µg/mL).
Turning to `COc1cc2[nH]c(C)cc(=O)c2cc1Cl`, the EC50 in the series with Plasmodium falciparum [1] was 1860 nM; with Plasmodium falciparum [2], 3180 nM; in the series on J774, more than 44700 nM. In series [3], this compound gave a logD of 1.95. The figures for the Papp in [4] and in series [5] were 25.2 ×10⁻⁶ cm/s and 11.9 ×10⁻⁶ cm/s, respectively. The values for the half-life in series [6] and in series [7] were 62.4 min and 161 min, respectively. In the series “in vitro”, the selectivity ratio is more than 24.1. In the series “physchem”, this compound registered a solubility of 2 µM (≈ 0.447 µg/mL).
On to `COc1cc2[nH]c(C)c(-c3ccccc3)c(=O)c2cc1Cl`, for which the values for the EC50 with Plasmodium falciparum [1], in the series on Plasmodium falciparum [2] and in the series with J774 were 15.3 nM, 26.2 nM and more than 33400 nM, respectively. Besides, the log distribution coefficient (logD) in [3] was determined as 1.65. In addition, the values for the Papp in series [4] and in [5] were 48.3 ×10⁻⁶ cm/s and 105 ×10⁻⁶ cm/s, respectively. Moreover, the results for the half-life in series [6] and in [7] were 21.3 min and 128 min, respectively. Besides, the selectivity ratio in the series “in vitro” was more than 2170. In the series “physchem”, this compound registered a solubility of 5 µM (≈ 1.5 µg/mL).
As for `CCc1c(C)[nH]c2cc(OC)c(Cl)cc2c1=O`, the EC50 with Plasmodium falciparum [1] turned out to be 27.6 nM; in the series on Plasmodium falciparum [2] it was 48.2 nM; in the series on J774 it was 19000 nM. This compound had a logD in series [3] of 2.43. In addition, the Papp in series [4] was 57.3 ×10⁻⁶ cm/s; in [5], 96.4 ×10⁻⁶ cm/s. The half-life in series [6] is 28.4 min; in series [7], 33.8 min. The selectivity ratio in “in vitro” was found to be 689. Further, in “physchem”, the solubility stood at 10 µM (≈ 2.52 µg/mL).
For `COc1cc2[nH]c(C)c(-c3ccccc3)c(=O)c2cc1Br`, the EC50 with Plasmodium falciparum [1] was 25 nM; in the series on Plasmodium falciparum [2] it was 79.4 nM; in the series with J774, more than 29100 nM. For the same compound, the logD in series [3] was 2.2. Besides, the Papp stood at 330 ×10⁻⁶ cm/s in series [4] and 306 ×10⁻⁶ cm/s in [5]. Moreover, the selectivity ratio in the series “in vitro” was more than 1160. Also, in the series “physchem”, the solubility is less than 2 µM.
As to `CCc1c(C)[nH]c2cc(OC)c(Br)cc2c1=O`, the EC50 is 36.3 nM in the series on Plasmodium falciparum [1], 179 nM in the series with Plasmodium falciparum [2] and more than 33900 nM with J774. The same compound came in with a logD in [3] of 1.7. For the same compound, the Papp in series [4] is 75.1 ×10⁻⁶ cm/s; in series [5] it was 81.9 ×10⁻⁶ cm/s. In “in vitro”, the selectivity ratio was more than 933. This compound registered a solubility in “physchem” of 2 µM (≈ 0.592 µg/mL).
As to `Cc1[nH]c2cc(Cl)ccc2c(=O)c1Cc1ccccc1`, the half-maximal effective concentration (EC50) was 15700 nM with Plasmodium falciparum [1], 2170 nM with Plasmodium falciparum [2] and more than 35200 nM with J774. Moreover, the logD in series [3] worked out at 2.69. The results for the Papp in series [4] and in series [5] were 392 ×10⁻⁶ cm/s and 341 ×10⁻⁶ cm/s, respectively. Also, the selectivity ratio in the series “in vitro” is more than 2.2. Besides, the solubility in “physchem” was less than 2 µM.
`Cc1[nH]c2ccccc2c(=O)c1Cc1ccccc1`: the EC50 is 6200 nM in the series on Plasmodium falciparum [1], more than 5010 nM in the series on Plasmodium falciparum [2] and more than 40100 nM in the series on J774. In addition, in series [3], the pH-dependent lipophilicity (logD) was determined as 1.93. Besides, the Papp in [4] was 102 ×10⁻⁶ cm/s; in series [5], 110 ×10⁻⁶ cm/s. In “in vitro”, the selectivity ratio was more than 6.5. Moreover, the solubility in “physchem” was determined as 10 µM (≈ 2.49 µg/mL).
As to `COc1cc2[nH]c(C)c(-c3ccccc3)c(=O)c2cc1F`, the half-maximal effective concentration (EC50) was 83 nM with Plasmodium falciparum [1], 167 nM in the series on Plasmodium falciparum [2] and more than 35300 nM in the series with J774. Further, the log distribution coefficient (logD) in series [3] stood at 1.72. Also, the Papp in series [4] was found to be 124 ×10⁻⁶ cm/s; in [5] it was 192 ×10⁻⁶ cm/s. Also, the selectivity ratio in the series “in vitro” is more than 425. Further, the concentration in solution in “physchem” (solubility) came to 5 µM (≈ 1.42 µg/mL).
For `C=C(CCCCC)c1c(C)[nH]c2cc(OC)c(Cl)cc2c1=O`, the concentration for a half-maximal effect (EC50) with Plasmodium falciparum [1] was found to be 14.8 nM; with Plasmodium falciparum [2], 39.4 nM; with J774, 18900 nM. Moreover, in [3], the pH-dependent lipophilicity (logD) came out at 3.58. The Papp in series [4] came to 755 ×10⁻⁶ cm/s; in [5], 768 ×10⁻⁶ cm/s. The selectivity ratio in “in vitro” amounted to 1280. In the series “physchem”, this compound displayed a solubility of 2 µM (≈ 0.64 µg/mL).
Turning to `CCCCC#Cc1c(C)[nH]c2ccc(F)cc2c1=O`, the EC50 is more than 9640 nM in the series on Plasmodium falciparum [1], more than 9640 nM with Plasmodium falciparum [2] and more than 38600 nM in the series with J774. The logD in series [3] came to 5.64. The Papp in series [4] came out at 495 ×10⁻⁶ cm/s; in series [5], 314 ×10⁻⁶ cm/s. Moreover, the selectivity ratio in “in vitro” is more than 4. In addition, the solubility in “physchem” worked out at 2 µM (≈ 0.515 µg/mL).

The record behind these values is ChEMBL document CHEMBL1255199, “Endochin optimization: structure-activity and structure-property relationship studies of 3-substituted 2-methyl-4(1H)-quinolones with antimalarial activity” (J Med Chem, 2010).
